Like-named read-outs stand apart in the source and are kept apart here.
Tests used:
Assay in all cases: Kinase panel profiling at 1 µmol/L (MSA or IMAP), percentage inhibition
Assay type in all cases: biochemical
[1] = target: T1, panel of 255 wild-type kinases (Homo sapiens, UniProt Q96BR1); conditions: read-out: %-inhibition at 1 µmol/L, SGK3
T1 sequence (Q96BR1 1-496): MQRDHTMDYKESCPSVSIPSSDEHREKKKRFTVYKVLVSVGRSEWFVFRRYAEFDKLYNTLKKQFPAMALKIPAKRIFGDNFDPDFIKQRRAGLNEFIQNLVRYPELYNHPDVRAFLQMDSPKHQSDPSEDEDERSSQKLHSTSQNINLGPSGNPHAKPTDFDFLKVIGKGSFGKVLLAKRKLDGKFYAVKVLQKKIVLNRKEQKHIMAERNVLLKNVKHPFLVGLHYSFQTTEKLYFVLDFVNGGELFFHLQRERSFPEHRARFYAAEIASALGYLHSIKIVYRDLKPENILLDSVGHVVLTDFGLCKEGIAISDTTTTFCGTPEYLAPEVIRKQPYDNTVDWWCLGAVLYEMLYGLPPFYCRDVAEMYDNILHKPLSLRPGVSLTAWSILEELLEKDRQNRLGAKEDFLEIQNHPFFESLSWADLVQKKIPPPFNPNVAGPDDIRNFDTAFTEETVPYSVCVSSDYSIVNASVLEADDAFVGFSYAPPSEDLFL

[2] = target: panel of 255 wild-type kinases (Homo sapiens, UniProt Q14680); conditions: read-out: %-inhibition, MELK
[3] = target: T2, panel of 255 wild-type kinases (Homo sapiens, UniProt Q9NRM7); conditions: read-out: %-inhibition at 1 µmol/L, LATS2
T2 sequence (Q9NRM7 1-1088): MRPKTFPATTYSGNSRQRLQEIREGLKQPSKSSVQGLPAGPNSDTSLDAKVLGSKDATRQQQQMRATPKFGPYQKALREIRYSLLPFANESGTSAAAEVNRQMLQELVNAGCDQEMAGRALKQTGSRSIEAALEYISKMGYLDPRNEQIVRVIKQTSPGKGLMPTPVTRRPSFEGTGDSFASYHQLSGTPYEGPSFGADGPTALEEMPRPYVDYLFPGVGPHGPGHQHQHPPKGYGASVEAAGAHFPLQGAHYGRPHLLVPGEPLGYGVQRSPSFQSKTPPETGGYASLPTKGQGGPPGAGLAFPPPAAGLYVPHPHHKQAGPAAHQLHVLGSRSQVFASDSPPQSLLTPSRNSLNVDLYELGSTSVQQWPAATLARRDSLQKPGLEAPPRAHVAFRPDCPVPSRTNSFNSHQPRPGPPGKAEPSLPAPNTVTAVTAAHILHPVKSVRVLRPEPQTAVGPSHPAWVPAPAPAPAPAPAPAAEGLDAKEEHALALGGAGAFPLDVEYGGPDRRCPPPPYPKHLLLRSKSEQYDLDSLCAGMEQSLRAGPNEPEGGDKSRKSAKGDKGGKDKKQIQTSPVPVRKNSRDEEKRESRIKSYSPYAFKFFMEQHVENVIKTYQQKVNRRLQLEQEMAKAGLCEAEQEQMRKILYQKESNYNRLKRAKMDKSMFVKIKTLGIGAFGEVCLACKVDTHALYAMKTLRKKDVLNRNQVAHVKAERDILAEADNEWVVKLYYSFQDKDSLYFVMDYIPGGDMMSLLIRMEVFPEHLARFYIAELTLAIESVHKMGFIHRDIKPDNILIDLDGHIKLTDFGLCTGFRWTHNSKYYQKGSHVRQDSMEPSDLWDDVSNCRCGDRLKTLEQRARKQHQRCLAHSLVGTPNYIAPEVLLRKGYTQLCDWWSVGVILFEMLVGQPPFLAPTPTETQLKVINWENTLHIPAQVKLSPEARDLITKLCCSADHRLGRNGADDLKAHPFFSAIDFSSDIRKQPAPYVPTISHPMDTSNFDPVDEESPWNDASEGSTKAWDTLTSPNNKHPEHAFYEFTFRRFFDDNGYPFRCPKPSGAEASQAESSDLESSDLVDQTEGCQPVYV

[4] = target: panel of 255 wild-type kinases (Homo sapiens, UniProt Q96GD4); conditions: read-out: %-inhibition AurB
[5] = target: T3, panel of 255 wild-type kinases (Homo sapiens, UniProt Q9UHD2); conditions: read-out: %-inhibition at 1 µmol/L, TBK1
T3 sequence (Q9UHD2 1-729): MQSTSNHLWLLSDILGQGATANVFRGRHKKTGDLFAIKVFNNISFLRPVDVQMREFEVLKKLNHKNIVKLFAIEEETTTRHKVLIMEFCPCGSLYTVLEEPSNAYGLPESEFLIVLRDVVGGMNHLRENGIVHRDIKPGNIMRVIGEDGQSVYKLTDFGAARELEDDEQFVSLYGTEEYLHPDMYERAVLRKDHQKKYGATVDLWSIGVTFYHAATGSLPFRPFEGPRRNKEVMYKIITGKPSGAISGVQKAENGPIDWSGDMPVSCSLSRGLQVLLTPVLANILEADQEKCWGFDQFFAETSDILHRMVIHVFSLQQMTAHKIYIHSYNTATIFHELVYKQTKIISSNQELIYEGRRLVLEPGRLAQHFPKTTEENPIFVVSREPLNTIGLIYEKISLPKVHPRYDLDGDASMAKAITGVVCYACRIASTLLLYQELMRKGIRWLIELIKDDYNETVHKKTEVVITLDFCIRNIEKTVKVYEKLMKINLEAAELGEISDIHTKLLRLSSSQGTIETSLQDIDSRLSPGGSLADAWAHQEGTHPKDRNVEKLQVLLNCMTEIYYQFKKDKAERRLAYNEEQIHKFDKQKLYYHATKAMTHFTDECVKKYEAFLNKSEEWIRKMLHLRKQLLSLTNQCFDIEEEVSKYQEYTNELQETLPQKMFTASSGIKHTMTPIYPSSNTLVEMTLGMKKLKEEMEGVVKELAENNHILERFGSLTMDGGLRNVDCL

[6] = kinase SGK3, 1 µmol/L single concentration
[7] = MELK, 1 µmol/L single concentration
[8] = kinase LATS2, 1 µmol/L single concentration
[9] = AurB kinase assay, 1 µmol/L single concentration
[10] = kinase TBK1, 1 µmol/L single concentration

Row | SMILES | inhibition at 1 µM [1, 6] | inhibition at 1 µM [2, 7] | inhibition at 1 µM [3, 8] | inhibition at 1 µM [4, 9] | inhibition at 1 µM [5, 10] | inhibition at 1 µM [4] | inhibition at 1 µM [1] | inhibition at 1 µM [2] | inhibition at 1 µM [3] | inhibition at 1 µM [5]
1 | CO[C@]1(C(=O)N[C@@H](C)c2ccc(-n3cc(F)cn3)nc2)CC[C@H](c2nc(C)cc(Nc3cc(C)[nH]n3)n2)CC1 [pralsetinib] | -0.536% | 3.6% | 7.44% | 38% | -0.586% |  |  |  |  | 
2 | COc1cc2ncnc(Nc3ccc(F)c(Cl)c3)c2cc1NC(=O)/C=C/CN1CCCCC1 [dacomitinib] | -20% | 15% | 11% | 2% | 17% |  |  |  |  | 
3 | CCn1c(=O)c(-c2cc(NC(=O)Nc3ccccc3)c(F)cc2Br)cc2cnc(NC)cc21 [ripretinib] | -9% | 30% | -0.411% | 5% | 0.403% |  |  |  |  | 
4 | Cc1nc(NC(=O)N2CCC[C@H]2C(N)=O)sc1-c1ccnc(C(C)(C)C(F)(F)F)c1 [alpelisib] | 1.47% | 0.22% | -1% | -4.26% | -2.72% |  |  |  |  | 
5 | C=CC(=O)N1CCC([C@@H]2CCNc3c(C(N)=O)c(-c4ccc(Oc5ccccc5)cc4)nn32)CC1 [zanubrutinib] | -3.7% | -0.631% | -0.0723% | -4% | 0.115% |  |  |  |  | 
6 | O=C(Nc1cnn2ccc(N3CCC[C@@H]3c3cc(F)ccc3F)nc12)N1CC[C@H](O)C1 [larotrectinib] | -4.61% | -1.52% | -3% | -4.57% | 0.0799% |  |  |  |  | 
7 | Cc1cc(Nc2ncnc3ccc(NC4=NC(C)(C)CO4)cc23)ccc1Oc1ccn2ncnc2c1 [tucatinib] | -4% | 0.809% | 0.168% | -0.568% | -3% |  |  |  |  | 
8 | FC(F)(F)c1ccc(CNc2ccc(Cc3c[nH]c4ncc(Cl)cc34)cn2)cn1 [pexidartinib] | -0.803% | 3% | 4% | 60% | 6% |  |  |  |  | 
9 | Cn1cnc2c(F)c(Nc3ccc(Br)cc3F)c(C(=O)NOCCO)cc21 [binimetinib] | -0.74% | -1.8% | -3% | -3.18% | 0.416% |  |  |  |  | 
10 | CN1CCN(c2ccc(C(=O)Nc3n[nH]c4ccc(Cc5cc(F)cc(F)c5)cc34)c(NC3CCOCC3)c2)CC1 [entrectinib] | 0.413% |  | 18% | 48% | 8% |  |  |  |  | 
11 | COC(=O)N[C@@H](C)CNc1nccc(-c2cn(C(C)C)nc2-c2cc(Cl)cc(NS(C)(=O)=O)c2F)n1 [encorafenib] | 5% | 4.48% | 3.49% | -0.69% | 1.21% |  |  |  |  | 
12 | C[C@H]1Oc2cc(cnc2N)-c2c(nn(C)c2C#N)CN(C)C(=O)c2ccc(F)cc21 [lorlatinib] | 7.56% | 4% | 6% | 5% | -1.23% |  |  |  |  | 
13 | CCN1CCN(c2ccc(Nc3cc(N(C)C(=O)Nc4c(Cl)c(OC)cc(OC)c4Cl)ncn3)cc2)CC1 [infigratinib] | -3% | -2% | -3.67% | -5% | -4% |  |  |  |  | 
14 | COc1ccc(CN2C3CC2CN(c2ccc(-c4cc(OCC(C)(C)O)cn5ncc(C#N)c45)cn2)C3)cn1 [selpercatinib] | -0.72% | 62% | -5.4% | 79% | 12% |  |  |  |  | 
15 | Cn1cnc2c(F)c(Nc3ccc(Br)cc3Cl)c(C(=O)NOCCO)cc21 [selumetinib] | -4% | -2.6% | -3.38% | 12% | -1.18% |  |  |  |  | 
16 | CCc1nc(C(N)=O)c(Nc2ccc(N3CCC(N4CCN(C)CC4)CC3)c(OC)c2)nc1NC1CCOCC1 [gilteritinib] | -18% | 75% | 44% |  | 24% | 64% |  |  |  | 
17 | CCN1C(=O)N(c2c(F)c(OC)cc(OC)c2F)Cc2cnc3[nH]c(CN4CCOCC4)cc3c21 [pemigatinib] | -7% | 0.738% | -3% | 2.32% | 0% |  |  |  |  | 
18 | Cn1cc(-c2cc3c(N4CCN(c5ncc([C@@](C)(N)c6ccc(F)cc6)cn5)CC4)ncnn3c2)cn1 [avapritinib] | -2% | 9% | 1.47% | 20% | -1.13% |  |  |  |  | 
19 | CNC(=O)c1ccc(-c2cnc3ncc(Cc4ccc5ncccc5c4)n3n2)cc1F [capmatinib] |  |  |  |  |  | 4.24% | -2.49% | -4% | -7% | -2.83%
20 | C[C@H](Nc1ncnc2nc[nH]c12)c1cc2cccc(Cl)c2c(=O)n1-c1ccccc1 [duvelisib] | 1.26% | 2.43% | 8% | 0.417% | -2.46% |  |  |  |  | 
